# Source: patent US20250351832A1, “PHYTOCHEMICALS AS BIOPESTICIDES AND BIOSTIMULANTS” (KAY BEE BIO ORGANICS PVT. LTD., priority 2024, published 2025)
# Read-outs that look alike come from different tables or passages of the source.
# Columns and labels:
# Alternaria alternata [1] = assay: Alternaria leaf spot/blight on inoculated tomato plants (Ex. 28); type: in vivo; settings: tomato plants, Alternaria alternata; after 7 days; dose 1 ml/gm/lit
# Alternaria alternata [2] = assay: In vitro poisoned food technique against fungus (Ex. 20); type: cell-based; settings: poisoned food technique, PDA medium, dose 1 ml/gm/lit., after seven days
# Spodoptera litura [3] = assay: whole plant or invertebrate; settings: 72 h
# Mealy Bug [4] = settings: mealy bug on cotton plants, green house, dose 1 ml/gm/lit. spray
# Thrips [5] = settings: thrips on cotton plants, greenhouse, dose 1 ml/gm/lit. spray
# Thrips [6] = assay: whole plant or invertebrate; settings: in Gossypium hirsutum, 48 h
# Spodoptera litura [7] = settings: Spodoptera litura on castor leaves; dose 1 ml/gm/lit.; 10 insects/treatment; 72 hrs after application
# Aphid [8] = assay: whole plant or invertebrate; settings: 48 h
# [9] = cited from earlier work
# Helicoverpa armigera [10] = settings: Helicoverpa armigera 3rd instar on chickpea plants, dose 1 ml/gm/lit. spray
# Mite [11] = tested on: Mite
# Mite [12] = settings: mite on okra plants, green house, dose 1 ml/gm/lit. spray
# Helicoverpa armigera [13] = settings: Helicoverpa armigera on okra fruits, dose 1 ml/gm/lit., 72 Hrs.
# tomato seedlings = assay: Response of tomato plants, greenhouse growth (Ex. 30); type: in vivo; settings: tomato seedlings, dose 1 ml/gm/lit
# chili seedlings = assay: Response of chili plants, greenhouse growth (Ex. 31); type: in vivo; settings: chili seedlings, dose 1 ml/gm/lit
# Thrips [14] = settings: Thrips on cotton leaves; dose 1 ml/gm/lit.; 10 insects/treatment; 48 hrs after application
# Spodoptera litura [15] = settings: Spodoptera litura 3rd instar on cabbage plants, dose 1 ml/gm/lit. spray
# Mealy Bug [16] = settings: Mealy Bug on cotton leaves, dose 1 ml/gm/lit., 48 Hrs.
# Aphid [17] = tested on: Aphid
# Aphid [18] = settings: Aphids on cotton plants, green house; dose 1 ml/gm/lit.; 10 insects/plant, 10 plants/treatment; 48 hrs
# [19] = 48 hrs, corrected for water control
# [20] = read-out: % Corrected Mortality at 48 Hrs.
# [21] = read-out: % Mortality at 48 Hrs.
# [22] = Table 13, descriptive, no test described
# [23] = 72 hrs, corrected for water control
# [24] = 10 insects/treatment, 4 replications
smiles,measurement,setting,value
Cc1ccc(C(C)C)c(O)c1 [Thymol],% Disease reduction over Control,Alternaria alternata [1],61.16%
same,Mean colony Diameter (mm),Alternaria alternata [2],51.50 mm
same,inhibition of growth at 1 mL or g/L,"Alternaria alternata [2]; vs untreated control, read-out: % Inhibition of growth",41.5%
same,mortality at 1 mL or g/L,Spodoptera litura [3]; read-out: % Corrected Mortality at 72 Hrs.,65.8%
same,mortality at 1 mL or g/L,Spodoptera litura [3]; read-out: % Mortality at 72 Hrs.,67.5%
same,% Mortality at 48 Hrs.,Mealy Bug [4]; 48 hrs after application,55.00%
same,Total No. of dead insect at 48 Hrs.,Mealy Bug [4]; 48 hrs after application,55.00
same,% Corrected Mortality at 48 Hrs.,Mealy Bug [4]; [19],50.00%
same,% Mortality at 48 Hrs.,Thrips [5]; 48 hrs after application,35.00%
same,Total No. of dead insect at 48 Hrs.,Thrips [5]; 48 hrs after application,35.00
same,% Corrected Mortality at 48 Hrs.,Thrips [5]; [19],27.78%
same,mortality at 1 mL or g/L,Thrips [6]; [20],22.9%
same,mortality at 1 mL or g/L,Thrips [6]; [21],32.5%
same,Total No. of dead insect at 72 Hrs.,Spodoptera litura [7],6.75
same,mortality at 1 mL or g/L,Aphid [8]; [20],55.9%
same,mortality at 1 mL or g/L,Aphid [8]; [21],62.5%
same,Antioxidant Activity - Mode of action,[9]; [22],Antioxidant and food
same,Bactericidal Activity - Mode of action,[9]; [22],Growth inhibition
same,Insecticidal Activities - Mode of action,[9]; [22],"Inhibited the growth,"
same,Virucidal Activity - Mode of action,[9]; [22],Inhibit virus replication
same,Phytotonic Effect,"[9]; Table 13, effect on plants, descriptive",Improves
same,% Mortality at 72 Hrs.,Helicoverpa armigera [10]; 72 hrs after application,62.50%
same,% Corrected Mortality at 72 Hrs.,Helicoverpa armigera [10]; [23],62.50%
same,Total No. of dead insect at 48 Hrs.,"Mite [11]; Dose 1 ml/gm/lit., 10 insects/treatment, 4 replications, okra leaves",6.00
same,% Corrected Mortality at 48 Hrs.,Mite [11]; in vivo,56.76%
same,% Mortality at 48 Hrs.,Mite [11]; in vivo,60.00%
same,% Mortality at 48 Hrs.,Mite [12]; 48 hrs after application,62.50%
same,Total No. of dead insect at 48 Hrs.,Mite [12]; 48 hrs after application,62.50
same,% Corrected Mortality at 48 Hrs.,Mite [12]; [19],60.53%
same,Total No. of dead insect at 72 Hrs.,Helicoverpa armigera [13]; [24],6.50
same,% Mortality at 72 Hrs.,Helicoverpa armigera [13],65.00%
same,% Corrected Mortality at 72 Hrs.,Helicoverpa armigera [13]; corrected for water control,65.00%
same,Plant Height 5th Day,tomato seedlings; 5th day after application,6.81 cm
same,Stem Girth 5th Day,tomato seedlings; 5th day after application,1.90 mm
same,Plant Height 10th Day,tomato seedlings; 10th day after application,7.62 cm
same,Stem Girth 10th Day,tomato seedlings; 10th day after application,2.53 mm
same,Plant Height % Increase over pre on 10th Day,tomato seedlings; 10th day,30.48%
same,Stem Girth % Increase over pre on 10th Day,tomato seedlings; 10th day,61.42%
same,CCI 5th Day,tomato seedlings; 5th day after application,14.12
same,CCI % Increase over pre on 10th Day,tomato seedlings; 10th day,22.87%
same,Root Length (cm) 10th Day,tomato seedlings; 10th day,4.82 cm
same,CCI 10th Day,tomato seedlings; 10th day after application,15.42
same,Root Length % Increase over control,"tomato seedlings; 10th day, vs water control",44.89%
same,CCI 5th Day,chili seedlings; 5th day after application,13.80
same,Plant Height (cm) 5th Day,chili seedlings; 5th day after application,6.13 cm
same,CCI % Increase over pre on 10th Day,chili seedlings; 10th day,75.74%
same,Plant Height % Increase over pre on 10th Day,chili seedlings; 10th day,58.04%
same,Root Lenght (cm) 10th Day,chili seedlings; 10th day,3.77 cm
same,Stem Girth % Increase over pre on 10th Day,chili seedlings; 10th day,51.36%
same,CCI 10th Day,chili seedlings; 10th day after application,14.85
same,Plant Height (cm) 10th Day,chili seedlings; 10th day after application,7.27 cm
same,Root Lenght % Increase over control,"chili seedlings; 10th day, vs water control",37.87%
same,Total No. of dead insect at 48 Hrs.,Thrips [14],3.25
same,% Mortality at 72 Hrs.,Spodoptera litura [15]; 72 hrs after application,65.00%
same,% Corrected Mortality at 72 Hrs.,Spodoptera litura [15]; [23],63.16%
same,Total No. of dead insect at 48 Hrs.,Mealy Bug [16]; [24],5.50
same,% Mortality at 48 Hrs.,Mealy Bug [16],55.00%
same,% Corrected Mortality at 48 Hrs.,Mealy Bug [16]; corrected for water control,52.63%
same,Total No. of dead insect at 48 Hrs.,"Aphid [17]; Dose 1 ml/gm/lit., 10 insects/treatment, 4 replications, cotton leaves",6.25
same,% Corrected Mortality at 48 Hrs.,Aphid [17]; in vivo,57.14%
same,Total No. of dead insect at 48 Hrs.,Aphid [18],62.50
